The source of these data is paper PMC3907362, “Synthetic cationic antimicrobial peptides bind with their hydrophobic parts to drug site II of human serum albumin” (BMC Structural Biology, 2014).

SMILES strings stand for the structures. “And” between values parts separate entries of the source, which are not always exact repeats. Identical values can stand only once. “Also recorded” adds a separate entry of the source. Like-named read-outs stand apart in the source and are kept apart here. Residues, ends and D or L forms follow the SMILES beside them.

Assay [1] deals with Escherichia coli ATCC 25922. It is filed as cell-based. The protocol:
(§1) The antibacterial activity of CAP 1 and CAP 5 were tested towards Staphylococcus aureus strain ATCC 25923, methicillin resistant Staphylococcus aureus strain ATCC 33591 and Escherichia coli strain ATCC 25922. The studies were performed by Toslab AS employing standard methods.

The subject of assay [2] is Methicillin resistant Staphylococcus aureus ATCC 33591. In kind it is cell-based. As for the experimental part: as §1
The subject of assay [3] is Staphylococcus aureus strain ATCC 25923. In kind it is cell-based. As for the experimental part: as §1
The test system of another assay is selected bacteria. The experiment in a line: MIC towards selected bacteria, summary over strains. In kind it is cell-based. The settings on record: all bacterial strains tested. As for the experimental part:
as §1

Assay [4] has as its target T1, human serum albumin (HSA) (Homo sapiens, UniProt P02768). The assay can be described thus: Non-competitive isothermal titration calorimetry (ITC). The note with it: for Kd: pH 7.4. As for the experimental part: The experiments were either performed on a CSC 5300 Nano-Isothermal Titration Calorimeter III (Calorimetry Sciences Corporation, Utah, USA) with a cell volume of 1 mL, or a MicroCal™ iTC200 with a cell volume of 200 μL (MicroCal, LLC., Northampton, MA, USA). In all experiments lyophilized HSA ~99% essential fatty acid and globulin free (Sigma A3782), was weighed out to a nominal concentration and dissolved prior to the experiments in buffer 50 mM Tris, 10 mM CaCl2, pH 7.4 at 25°C. All ligands and peptides were dissolved in the same buffer. Control titrations of ligand into buffer were performed in duplicate to investigate if the heat of dilution would generate a significant signal, and if ligand-ligand interactions were present in the competitive experiments. The same settings as for the corresponding ligand-HSA experiments were applied in the control experiments.
A stirring rate of 150 rpm and an isotherm temperature of 25°C were applied. The response signal was measured at 1 s intervals, and a 200 s baseline was collected prior to the first injection for the purpose of assessing the baseline. Non-competitive experiments were carried out either in duplicates or triplicates. […] In total 40 consecutive injections were performed with a volume of 5 μL and a spacing of 300 s. […] Prior to the first injection, a baseline of 100 s was recorded to ensure instrument stability. The solution was stirred at 150 rpm, and the isothermal temperature set to 25°C. All competitive experiments were carried out in duplicate. […] The first injection was set to a dummy volume of 0.1 μL due to syringe leakage in the baseline equilibration step. An initial delay of 180 s was set to sample the baseline. The applied reference power was 6 μcal/s and an isothermal temperature of 25°C was used. […] For the selected peptides CAP 3 and CAP 5 competitive experiments with reversed order of the reference ligands and the CAP were performed as a control of titration order. The same ITC settings were applied for the non-competitive and competitive experiments with the MicroCal™ iTC200.
The ITC data was analyzed using the NanoAnalyse software from TA Instruments, v2.0.1 (Waters LLC, New Castle, DE, US) or Origin® 7.0. Independent model fit was used to generate the binding isotherm, and the first injection in all titration experiments was omitted in the binding isotherm analysis. The heat of dilution and unspecific binding signal corresponding to the last injection in each experiment was subtracted from all of the heat signals. The quality of the model fit was examined using the statistical modules of the software, the 95% confidence interval based on a 1000 trial calculations in the NanoAnalyze package, and the default non-weighted least square calculation in Origin® 7.0.
(In general: ITC needs no label: the signal is the heat of the interaction.)

The target in a further assay is HSA (Homo sapiens, UniProt P02768). The experiment in a line: NMR WaterLOGSY. It is filed as binding. The settings on record: HSA:ligand 1:20. From the text:
All NMR experiments were acquired on an Agilent (Varian) inova spectrometer operating at 599.934 MHz for ^1H, equipped with a 2nd generation inverse triple resonance HCN cold probe. […] The difference spectra were produced by internal subtraction and all spectra were acquired with both sculpted solvent suppression during the PFG spin echo and 500 ms solvent presaturation during the relaxation delay. The protein signals were suppressed by a 10 ms T1ρ-spinlock. Finally, the spectra were multiplied with a 3 Hz exponential window function. For reference, double PFG spin echo 1D proton spectra were acquired using the same parameters, including the 10 ms T1ρ-spinlock for protein suppression. […] All samples were monitored for line broadening, quickened relaxation and NOE inversion to spot any direct interaction between ligands before the addition of HSA.

The target of assay [5] is T1, human serum albumin (HSA). More on the design: purchased Sigma A3782. The settings on record: HSA drug site II; ref [34],[35]; read-out: binding affinity (Kd), reported in other studies; cited from earlier work.
[6] abbreviates: Kd, CSC 5300 Nano-Isothermal Titration Calorimeter III, 25°C.
[7] abbreviates: Kd, MicroCal iTC200 (values in parenthesis), 25°C.
Where [8] appears, read: CSC 5300 Nano-Isothermal Titration Calorimeter III.
Setting [9] is: MicroCal iTC200 (values in parenthesis).

HSA, sequence (P02768 25-609): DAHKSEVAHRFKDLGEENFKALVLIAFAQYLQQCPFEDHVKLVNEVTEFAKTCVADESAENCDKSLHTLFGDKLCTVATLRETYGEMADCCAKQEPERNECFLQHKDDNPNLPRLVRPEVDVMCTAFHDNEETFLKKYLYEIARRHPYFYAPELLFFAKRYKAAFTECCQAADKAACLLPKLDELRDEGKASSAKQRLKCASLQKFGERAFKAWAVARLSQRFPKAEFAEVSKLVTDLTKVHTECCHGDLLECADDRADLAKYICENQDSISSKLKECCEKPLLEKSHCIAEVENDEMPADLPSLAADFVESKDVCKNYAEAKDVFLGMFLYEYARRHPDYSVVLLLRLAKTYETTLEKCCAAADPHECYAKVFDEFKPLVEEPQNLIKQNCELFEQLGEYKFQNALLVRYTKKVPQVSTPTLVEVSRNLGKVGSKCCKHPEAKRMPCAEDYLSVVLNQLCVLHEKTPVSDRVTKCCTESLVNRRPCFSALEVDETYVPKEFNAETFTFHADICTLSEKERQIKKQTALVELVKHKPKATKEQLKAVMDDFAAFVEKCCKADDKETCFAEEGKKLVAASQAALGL
T1 sequence (P02768 25-609): as above

By Kd is commonly meant the free concentration of one partner at which half of the binding sites on the other are occupied at equilibrium, for simple one-to-one binding. With `C[C@H](NC(=O)[C@@H](N)CCCNC(=N)N)C(=O)N[C@@H](CCCNC(=N)N)C(N)=O` [CAP 1] (H-Arg-Ala-Arg-NH2), the “MIC E. coli” value in assay [1] was >499 µM. In addition, in assay [2], the “MIC MRSA” value is >499 µM. Further, the “MIC S. aureus” value in assay [3] was >499 µM. Moreover, the “Antimicrobial activity (MIC relative to threshold)” value in the assay with selected bacteria is “inactive”. Besides, the “Binding to HSA by ITC, in words” value in assay [4] (non-competitive ITC) was “did not bind to HSA; also recorded: does not bind to HSA”. The Kd result in assay [4] was “-”. For the same compound, the “WaterLOGSY binding to HSA” value at HSA is “does not interact directly with HSA and does not and not”.
In assay [4] (setting [6]), `N=C(N)NCCC[C@H](NC(=O)[C@H](Cc1c[nH]c2ccccc12)NC(=O)[C@@H](N)CCCNC(=N)N)C(=O)NCc1ccccc1` [CAP 2] (HELM PEPTIDE1{R.W.R.[c1ccc(CN[*:1])cc1]}$$$$V2.0) yielded a Kd of 23 ± 8 µM.
Regarding `N=C(N)NCCC[C@H](NC(=O)[C@H](Cc1ccc(-c2ccccc2)cc1)NC(=O)[C@@H](N)CCCNC(=N)N)C(=O)NCc1ccccc1` [CAP 3] (HELM PEPTIDE1{R.[O=C([C@H](Cc1ccc(-c2ccccc2)cc1)N[*:1])[*:2]].R.[c1ccc(CN[*:1])cc1]}$$$$V2.0), the Kd was 22 ± 9 µM in assay [4] (setting [6]) and 99 µM in assay [4] (setting [7]).
Compound `CC(C)(C)c1cc(C(C)(C)C)c2[nH]c(C(C)(C)C)c(C[C@H](NC(=O)[C@@H](N)CCCNC(=N)N)C(=O)N[C@@H](CCCNC(=N)N)C(=O)NCc3ccccc3)c2c1` [CAP 4] returned a Kd in assay [4] (setting [6]) of 25 ± 9 µM.
In the case of `C[C@H](N)C(=O)N[C@@H](Cc1ccc(-c2ccccc2)cc1)C(=O)N[C@@H](C)C(N)=O` [CAP 5], in assay [1], the “MIC E. coli” value was >523 µM. Further, the “MIC MRSA” value in assay [2] was >523 µM. In assay [3], the “MIC S. aureus” value was >523 µM. The equilibrium dissociation constant (Kd) in assay [4] (setting [7]) stood at 100 µM.
For the compound `CN(C)c1cccc2c(S(=O)(=O)NCC(=O)O)cccc12` [Dgly, dansylglycine], in assay [4] (setting [8]), the TΔS came to 2.3 ± 0.5 kcal/mol, the “n (stoichiometric ratio)” value stood at 1.08 ± 0.05 and the ΔH is -4.5 ± 0.3 kcal/mol. This compound also gave an equilibrium dissociation constant (Kd) in assay [4] (setting [6]) of 11 ± 4 µM. The Kd in assay [4] (setting [7]) is 40 µM. For the same compound, in assay [4] (setting [9]), the TΔS is recorded as 0.5 ± 0.1 kcal/mol; the “n (stoichiometric ratio)” value is 1.16 ± 0.01; the ΔG was -6.0 kcal/mol and -6.00 ± 0.02 kcal/mol; the ΔH is reported as -5.5 ± 0.1 kcal/mol. Further, the “WaterLOGSY binding to HSA” value on HSA is given as “clear WaterLOGSY effect”. Also, the equilibrium dissociation constant (Kd) in assay [5] is 1.7 to 3.2 µM.
